Target: T1, CgFMNAT (Nakaseomyces glabratus, UniProt Q6FNA9)
T1 sequence (Q6FNA9 1-304): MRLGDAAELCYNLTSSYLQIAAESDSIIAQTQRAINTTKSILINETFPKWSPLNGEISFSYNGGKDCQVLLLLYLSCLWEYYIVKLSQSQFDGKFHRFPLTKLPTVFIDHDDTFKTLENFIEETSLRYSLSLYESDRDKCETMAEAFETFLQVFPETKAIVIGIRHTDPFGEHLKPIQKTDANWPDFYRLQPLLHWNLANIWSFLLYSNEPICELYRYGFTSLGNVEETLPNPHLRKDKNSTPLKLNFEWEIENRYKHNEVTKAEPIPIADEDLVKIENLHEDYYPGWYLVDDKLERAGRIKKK

O=P(O)(O)OP(=O)(O)O [pyrophosphate]
X-ray crystal structure of product ternary complex (1.35 Å): the densities for both products FAD and pyrophosphate (PPi) are well defined

Source: article PMC2928223 (Journal of molecular biology, 2009)
